Data on 15 molecules can be found in patent US20140228349A1, “5,7-SUBSTITUTED-IMIDAZO[1,2-C]PYRIMIDINES” (Array BioPharma Inc., priority 2011, published 2014).

Molecules are shown by their SMILES. A value given as a limit tells only on which side of the number the result lay.

Holding throughout (format): biochemical
The target in assay [1] is T1, JAK2 (Homo sapiens, UniProt O60674).
T1 construct: purchased Invitrogen Corporation, Carlsbad, Calif; IVGN PV4288
Description: JAK2 Inhibition Assay (Omnia kinase fluorescence peptide substrate). Particulars: averaged IC50 ranges; 25 μM (Km app) or 1 mM ATP, 5 nM JAK2.

For assay [2], the target named is T2, JAK1 (Homo sapiens, UniProt P23458).
T2 construct: purchased Invitrogen Corporation, Carlsbad, Calif; IVGN PV4775
Description: JAK1 Inhibition Assay (Omnia kinase fluorescence peptide substrate). Particulars: averaged IC50 ranges; 40 μM (Km app) or 1 mM ATP, 15 nM JAK1. The method, boiled down: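 15 nM JAK1, 8 μM Omnia Y12 peptide, 40 μM (Km app) or 1 mM ATP; 25 mM HEPES pH 7.4, 10 mM MgCl2, 2% DMSO. Fluorescence (ex 360/em 485 nm) read every 50 s over 45 min. IC50 by 4-parameter fit of percent of control, top dose 10 μM.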

Assay [3] concerns the target T3, JAK3 (Homo sapiens, UniProt P52333).
T3 construct: purchased Invitrogen Corporation, Carlsbad, Calif; IVGN PV4080
T3 sequence (P52333 1-1124): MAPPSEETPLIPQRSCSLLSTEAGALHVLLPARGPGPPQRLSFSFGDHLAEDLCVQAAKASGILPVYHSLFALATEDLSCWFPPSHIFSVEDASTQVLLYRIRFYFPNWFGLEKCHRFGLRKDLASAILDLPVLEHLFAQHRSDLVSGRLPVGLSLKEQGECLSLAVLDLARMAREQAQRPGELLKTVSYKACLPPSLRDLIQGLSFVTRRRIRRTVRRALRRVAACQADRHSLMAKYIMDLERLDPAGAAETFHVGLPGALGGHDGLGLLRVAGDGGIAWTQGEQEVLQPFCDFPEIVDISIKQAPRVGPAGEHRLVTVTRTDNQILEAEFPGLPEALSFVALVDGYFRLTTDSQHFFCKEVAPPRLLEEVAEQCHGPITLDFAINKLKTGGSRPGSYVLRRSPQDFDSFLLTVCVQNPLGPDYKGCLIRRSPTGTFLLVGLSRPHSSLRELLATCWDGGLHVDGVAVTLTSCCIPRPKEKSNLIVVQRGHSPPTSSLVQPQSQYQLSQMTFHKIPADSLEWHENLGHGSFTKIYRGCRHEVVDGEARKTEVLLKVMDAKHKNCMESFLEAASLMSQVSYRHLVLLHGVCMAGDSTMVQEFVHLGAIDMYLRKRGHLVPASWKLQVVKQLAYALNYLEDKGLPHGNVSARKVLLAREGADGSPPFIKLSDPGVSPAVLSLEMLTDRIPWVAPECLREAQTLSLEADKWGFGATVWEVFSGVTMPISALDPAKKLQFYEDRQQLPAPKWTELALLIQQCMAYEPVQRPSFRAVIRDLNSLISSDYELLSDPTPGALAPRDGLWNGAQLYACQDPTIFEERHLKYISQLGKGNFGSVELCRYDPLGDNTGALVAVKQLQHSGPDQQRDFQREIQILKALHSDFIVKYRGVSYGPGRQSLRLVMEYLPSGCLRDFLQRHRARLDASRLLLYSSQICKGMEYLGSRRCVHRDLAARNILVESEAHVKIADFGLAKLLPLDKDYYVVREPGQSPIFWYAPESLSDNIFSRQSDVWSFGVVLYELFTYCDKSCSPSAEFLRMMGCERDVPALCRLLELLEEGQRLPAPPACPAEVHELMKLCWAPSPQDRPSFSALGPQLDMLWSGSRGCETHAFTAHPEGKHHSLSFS
Nature of the assay: JAK3 Inhibition Assay (Omnia kinase fluorescence peptide substrate). The settings on record: averaged IC50 ranges; 10 μM (Km app) or 1 mM ATP, 2.5 nM JAK3. The procedure, abridged: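 IC50 is the concentration giving 50 percent of control on a 4-parameter logistic fit of 10-point, 3-fold dilutions from a 10 μM top dose, at 2% final DMSO. Kinetic Sox fluorescence (360/485 nm) was monitored every 50 s for 45 min. Mix: JAK3 2.5 nM, Omnia Y7 peptide 10 μM, ATP 10 μM (Km app) or 1 mM, in HEPES pH 7.4 buffer with MgCl2, Triton X-100 and DTT.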

Assay [4] concerns the target T4, Human Tyk2 kinase domain (Homo sapiens, UniProt P29597).
T4 construct: comprising amino acids 886 to 1187; His10 (10 histidine residues) (C, cleaved yes); made in house
T4 sequence (P29597 886-1187): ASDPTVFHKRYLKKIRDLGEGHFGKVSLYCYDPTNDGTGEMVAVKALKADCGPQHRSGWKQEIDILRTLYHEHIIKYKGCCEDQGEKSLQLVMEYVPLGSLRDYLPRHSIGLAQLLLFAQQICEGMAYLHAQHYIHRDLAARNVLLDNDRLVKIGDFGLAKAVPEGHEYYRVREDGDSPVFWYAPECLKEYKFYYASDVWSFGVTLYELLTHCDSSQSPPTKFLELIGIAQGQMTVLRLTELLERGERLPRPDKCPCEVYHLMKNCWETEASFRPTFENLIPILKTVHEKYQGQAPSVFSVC
Nature of the assay: Tyk2 Inhibition Assay (Omnia kinase fluorescence peptide substrate). Particulars: averaged IC50 ranges; 10 μM (Km app) or 1 mM ATP, 2 nM Tyk2. The procedure, abridged: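 Phosphorylation of 8 μM Omnia Y12 peptide followed kinetically by Sox fluorescence, ex 360/em 485 nm, every 50 s for 45 min. Enzyme: 2 nM Tyk2 kinase domain (aa 886–1187, His tag removed); ATP at 10 μM (Km app) or 1 mM; buffer HEPES pH 7.4 with MgCl2, Triton X-100, DTT. 10-point curves up to 10 μM, IC50 from 4-parameter logistic fit.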

T1 sequence (O60674 whole entry): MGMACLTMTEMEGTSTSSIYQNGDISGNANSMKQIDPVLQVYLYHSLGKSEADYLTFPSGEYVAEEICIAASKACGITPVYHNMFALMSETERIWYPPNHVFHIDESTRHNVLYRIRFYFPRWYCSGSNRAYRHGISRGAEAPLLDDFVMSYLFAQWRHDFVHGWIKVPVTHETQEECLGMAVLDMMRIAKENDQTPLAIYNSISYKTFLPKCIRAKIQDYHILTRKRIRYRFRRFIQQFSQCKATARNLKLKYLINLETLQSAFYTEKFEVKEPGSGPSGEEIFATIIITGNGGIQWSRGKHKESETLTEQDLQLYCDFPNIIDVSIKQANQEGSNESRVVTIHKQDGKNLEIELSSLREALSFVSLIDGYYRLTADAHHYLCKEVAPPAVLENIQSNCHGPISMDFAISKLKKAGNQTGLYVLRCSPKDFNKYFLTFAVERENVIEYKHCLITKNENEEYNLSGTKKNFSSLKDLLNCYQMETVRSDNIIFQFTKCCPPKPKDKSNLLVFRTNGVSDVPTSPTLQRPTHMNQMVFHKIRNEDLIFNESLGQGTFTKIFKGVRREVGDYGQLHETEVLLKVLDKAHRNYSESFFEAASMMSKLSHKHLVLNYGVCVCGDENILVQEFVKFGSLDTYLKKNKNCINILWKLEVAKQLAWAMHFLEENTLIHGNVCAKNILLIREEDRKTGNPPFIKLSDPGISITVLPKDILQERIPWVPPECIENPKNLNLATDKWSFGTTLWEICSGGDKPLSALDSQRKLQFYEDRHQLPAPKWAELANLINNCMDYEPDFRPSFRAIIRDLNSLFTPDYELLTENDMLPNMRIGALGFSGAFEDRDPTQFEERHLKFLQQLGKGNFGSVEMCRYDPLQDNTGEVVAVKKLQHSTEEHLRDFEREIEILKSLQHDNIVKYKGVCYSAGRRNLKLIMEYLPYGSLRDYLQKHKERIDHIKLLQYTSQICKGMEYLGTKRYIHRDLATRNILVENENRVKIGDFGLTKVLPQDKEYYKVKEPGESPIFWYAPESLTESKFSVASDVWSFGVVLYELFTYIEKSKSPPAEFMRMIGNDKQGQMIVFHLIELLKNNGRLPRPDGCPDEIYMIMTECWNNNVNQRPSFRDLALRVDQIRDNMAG
T2 sequence (P23458 whole entry): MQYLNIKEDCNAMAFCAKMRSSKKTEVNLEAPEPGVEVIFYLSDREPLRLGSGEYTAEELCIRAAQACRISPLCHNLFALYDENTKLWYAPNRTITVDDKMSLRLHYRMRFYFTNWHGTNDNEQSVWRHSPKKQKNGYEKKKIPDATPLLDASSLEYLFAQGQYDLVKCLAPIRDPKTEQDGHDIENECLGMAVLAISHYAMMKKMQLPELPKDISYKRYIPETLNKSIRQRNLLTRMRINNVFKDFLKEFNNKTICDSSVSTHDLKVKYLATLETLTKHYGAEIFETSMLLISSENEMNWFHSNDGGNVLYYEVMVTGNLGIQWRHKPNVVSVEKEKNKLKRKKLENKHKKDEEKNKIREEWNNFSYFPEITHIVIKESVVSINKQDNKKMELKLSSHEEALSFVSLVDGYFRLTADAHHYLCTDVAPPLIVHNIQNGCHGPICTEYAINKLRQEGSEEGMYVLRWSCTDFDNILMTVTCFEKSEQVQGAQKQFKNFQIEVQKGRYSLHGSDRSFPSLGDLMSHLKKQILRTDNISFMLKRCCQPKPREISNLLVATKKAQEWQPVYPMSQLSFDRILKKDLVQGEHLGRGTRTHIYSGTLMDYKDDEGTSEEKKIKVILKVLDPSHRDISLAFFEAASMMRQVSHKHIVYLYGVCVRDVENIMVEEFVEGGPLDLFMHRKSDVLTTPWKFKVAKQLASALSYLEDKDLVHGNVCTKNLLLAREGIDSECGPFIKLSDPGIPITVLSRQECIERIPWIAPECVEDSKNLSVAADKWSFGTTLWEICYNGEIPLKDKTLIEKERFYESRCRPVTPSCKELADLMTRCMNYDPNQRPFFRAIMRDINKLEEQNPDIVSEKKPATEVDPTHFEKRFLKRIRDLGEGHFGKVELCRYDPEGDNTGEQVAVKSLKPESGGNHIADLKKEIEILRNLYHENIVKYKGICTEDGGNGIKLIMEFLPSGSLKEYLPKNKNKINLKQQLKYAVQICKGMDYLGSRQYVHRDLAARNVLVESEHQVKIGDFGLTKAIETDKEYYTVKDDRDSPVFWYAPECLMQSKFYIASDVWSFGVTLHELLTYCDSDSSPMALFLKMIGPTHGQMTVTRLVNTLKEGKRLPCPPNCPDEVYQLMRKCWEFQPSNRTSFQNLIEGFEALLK

For `Cn1cc(-c2cc3nccn3c(-c3cnn(C4CCCC4)c3)n2)cn1` [Example 34, 5-(1-cyclopentyl-1H-pyrazol-4-yl)-7-(1-methyl-1H-pyrazol-4-yl)imidazo[1,2-c]pyrimidine], the IC50 (in general, the concentration at which inhibition is half-maximal) is 100 to 1000 nM in assay [1], over 1000 nM in assay [2], over 1000 nM in assay [3] and 100 to 1000 nM in assay [4].

For the molecule `Cn1cc(-c2cc3nccn3c(-c3cnn(C(CCO)C4CC4(F)F)c3)n2)cn1` (stereo not drawn) [Example 35, 3-(2,2-difluorocyclopropyl)-3-(4-(7-(1-methyl-1H-pyrazol-4-yl)imidazo[1,2-c]pyrimidin-5-yl)-1H-pyrazol-1-yl)propan-1-ol], the half-inhibitory concentration (IC50) in assay [1] is over 1000 nM; in assay [2], over 1000 nM; in assay [3] it was over 1000 nM; in assay [4] it was 100 to 1000 nM.

Regarding `Cn1cc(-c2cc3nccn3c(-c3cnn([C@H](CCF)C4CCC4)c3)n2)cn1` [Example 36, (R)-5-(1-(1-cyclobutyl-3-fluoropropyl)-1H-pyrazol-4-yl)-7-(1-methyl-1H-pyrazol-4-yl)imidazo[1,2-c]pyrimidine], the IC50 in assay [1] was 10 to 100 nM; in assay [2], 100 to 1000 nM; in assay [3], 100 to 1000 nM; in assay [4], under 10 nM.

On to `Cn1cc(-c2cc3nccn3c(-c3cnn([C@@H](CCF)C4CCC4)c3)n2)cn1` [Example 37, (S)-5-(1-(1-cyclobutyl-3-fluoropropyl)-1H-pyrazol-4-yl)-7-(1-methyl-1H-pyrazol-4-yl)imidazo[1,2-c]pyrimidine], for which the IC50 in assay [1] lay in the range of 100 to 1000 nM; in assay [2] it was 100 to 1000 nM; in assay [3], 100 to 1000 nM; in assay [4], 10 to 100 nM.

For the molecule `C/C=C/[C@H](C1CC1)n1cc(-c2nc(-c3cnn(C)c3)cc3nccn23)cn1` [Example 38, (S,E)-5-(1-(1-cyclopropylbut-2-en-1-yl)-1H-pyrazol-4-yl)-7-(1-methyl-1H-pyrazol-4-yl)imidazo[1,2-c]pyrimidine], the 50% inhibitory concentration (IC50) in assay [1] is 100 to 1000 nM; in assay [2], over 1000 nM; in assay [3], over 1000 nM; in assay [4], 100 to 1000 nM.

As for `CC=C[C@@H](C1CC1)n1cc(-c2nc(-c3cnn(C)c3)cc3nccn23)cn1` [Example 39, (R)-5-(1-(1-cyclopropylbut-2-en-1-yl)-1H-pyrazol-4-yl)-7-(1-methyl-1H-pyrazol-4-yl)imidazo[1,2-c]pyrimidine], the half-inhibitory concentration (IC50) in assay [1] was 100 to 1000 nM; in assay [2] it was 100 to 1000 nM; in assay [3], 100 to 1000 nM; in assay [4], 10 to 100 nM.

Turning to `C[C@@H](O)C[C@H](C1CC1)n1cc(-c2nc(-c3cnn(C)c3)cc3nccn23)cn1` [Example 40, (2R,4R)-4-cyclopropyl-4-(4-(7-(1-methyl-1H-pyrazol-4-yl)imidazo[1,2-c]pyrimidin-5-yl)-1H-pyrazol-1-yl)butan-2-ol], the IC50 is 100 to 1000 nM in assay [1], over 1000 nM in assay [2], over 1000 nM in assay [3] and 100 to 1000 nM in assay [4].

On to `C[C@H](O)C[C@@H](C1CC1)n1cc(-c2nc(-c3cnn(C)c3)cc3nccn23)cn1` [Example 41, (2S,4S)-4-cyclopropyl-4-(4-(7-(1-methyl-1H-pyrazol-4-yl)imidazo[1,2-c]pyrimidin-5-yl)-1H-pyrazol-1-yl)butan-2-ol], for which the IC50 in assay [1] was 100 to 1000 nM; in assay [2], over 1000 nM; in assay [3], over 1000 nM; in assay [4], 100 to 1000 nM.

For the molecule `CC[C@H](CCF)n1cc(-c2nc(-c3cnn(C)c3)cc3nccn23)cn1` [Example 42, (R)-5-(1-(1-fluoropentan-3-yl)-1H-pyrazol-4-yl)-7-(1-methyl-1H-pyrazol-4-yl)imidazo[1,2-c]pyrimidine], the half-inhibitory concentration (IC50) was 10 to 100 nM in assay [1], 100 to 1000 nM in assay [2], 100 to 1000 nM in assay [3] and under 10 nM in assay [4].

Consider `CC[C@@H](CCF)n1cc(-c2nc(-c3cnn(C)c3)cc3nccn23)cn1` [Example 43, (S)-5-(1-(1-fluoropentan-3-yl)-1H-pyrazol-4-yl)-7-(1-methyl-1H-pyrazol-4-yl)imidazo[1,2-c]pyrimidine], for which the IC50 in assay [1] lay within 10 to 100 nM; in assay [2], 100 to 1000 nM; in assay [3], 100 to 1000 nM; in assay [4], 10 to 100 nM.

`Cn1cc(-c2cc3nccn3c(-c3cnn(C(C/C=C\F)C4CC4)c3)n2)cn1` (stereo not drawn) [Example 44, (Z)-5-(1-(1-cyclopropyl-4-fluorobut-3-en-1-yl)-1H-pyrazol-4-yl)-7-(1-methyl-1H-pyrazol-4-yl)imidazo[1,2-c]pyrimidine]: the IC50 in assay [1] lay in the range of 10 to 100 nM; in assay [2], 100 to 1000 nM; in assay [3], 100 to 1000 nM; in assay [4], 10 to 100 nM.

For the molecule `CC#CCC(C1CC1)n1cc(-c2nc(-c3cnn(C)c3)cc3nccn23)cn1` (stereo not drawn) [Example 45, 5-(1-(1-cyclopropylpent-3-yn-1-yl)-1H-pyrazol-4-yl)-7-(1-methyl-1H-pyrazol-4-yl)imidazo[1,2-c]pyrimidine], the IC50 in assay [1] was 100 to 1000 nM; in assay [2], over 1000 nM; in assay [3], over 1000 nM; in assay [4] it was 100 to 1000 nM.

Consider `Cn1cc(-c2cc3nccn3c(-c3cnn(C4(CCF)CN(S(=O)(=O)NC5CC5)C4)c3)n2)cn1` [Example 46, N-cyclopropyl-3-(2-fluoroethyl)-3-(4-(7-(1-methyl-1H-pyrazol-4-yl)imidazo[l,2-c]pyrimidin-5-yl)-1H-pyrazol-1-yl)azetidine-1-sulfonamide], for which the IC50 was 100 to 1000 nM in assay [1], 100 to 1000 nM in assay [2], over 1000 nM in assay [3] and 100 to 1000 nM in assay [4].

As to `Cn1cc(-c2cc3nccn3c(-c3cnn(C(CCC(F)F)C4CC4)c3)n2)cn1` (stereo not drawn) [Example 47, 5-(1-(1-cyclopropyl-4,4-difluorobutyl)-1H-pyrazol-4-yl)-7-(1-methyl-1H-pyrazol-4-yl)imidazo[1,2-c]pyrimidine], the IC50 in assay [1] lay in the range of 10 to 100 nM; in assay [2] it was 100 to 1000 nM; in assay [3], 100 to 1000 nM; in assay [4] it was 10 to 100 nM.

As to `Cn1cc(-c2cc3nccn3c(-c3cnn([C@H](CC=C(F)F)C4CC4)c3)n2)cn1` [Example 49, (R)-5-(1-(1-cyclopropyl-4,4-difluorobut-3-en-1-yl)-1H-pyrazol-4-yl)-7-(1-methyl-1H-pyrazol-4-yl)imidazo[1,2-c]pyrimidine], the IC50 was 10 to 100 nM in assay [1], 10 to 100 nM in assay [2], 10 to 100 nM in assay [3] and under 10 nM in assay [4].
